Like-named read-outs stand apart in the source and are kept apart here.
Assays:
[1] = tested on: spontaneously hypertensive rats (SHR); conditions: cited from earlier work
[2] = Plasma pharmacokinetics, rising multiple-dose study; format: in vivo, human
[3] = healthy subjects; cited from earlier work
[4] = cited from earlier work
[5] = format: in vivo, human
[6] = Safety and tolerability; format: in vivo, human
[7] = Supine blood pressure and ECG-measured heart rate; format: in vivo, human; conditions: for decrease of supine DBP Emax in relation to day 1 / decrease of supine DBP AUCEC in relation to day 1: repeated dosing
[8] = tested on: urinary levels of norepinephrine, dopamine, epinephrine and homovanillic acid; assay: Urinary catecholamine excretion; format: in vivo, human; conditions: for decrease of urinary excretion of norepinephrine at day 10 in relation to day 1: 24-hour urine
[9] = tested on: DβH; conditions: cited from earlier work
[10] = etamicastat 25–600 mg once daily for 10 days

Cl.NCCc1c[nH]c(=S)n1[C@H]1COc2c(F)cc(F)cc2C1 [Etamicastat, (R)-5-(2-aminoethyl)-1-(6,8-difluorochroman-3-yl)-1,3-dihydroimidazole-2-thione hydrochloride]
blood pressure and norepinephrine urinary excretion ([1]; chronically administered in drinking water, SHR rats): significantly reduced | urinary excretion of dopamine ([1]; chronically administered in drinking water, only in SHR rats): increased significantly | systolic and diastolic blood pressure (but not the heart rate) ([1]; oral administration, SHR rats, dose-dependent, not observed in normotensive control rats): decreased | days of dosing until steady-state plasma concentrations were attained ([2]; all dose groups 25–600 mg once daily): up to 9 days | linearity of pharmacokinetics ([2]; dose range 25–600 mg): linear pharmacokinetics | day at which steady state was reached (trough plasma concentrations) ([2]; etamicastat 200 mg once daily): 9 days | day at which steady state was reached (trough plasma concentrations) ([2]; etamicastat 400 mg once daily): 8 days | effect of NAT1 phenotype on etamicastat pharmacokinetics ([2]; etamicastat 25–600 mg): No relevant effect | half-life ([2]; male, human, plasma, oral, mean apparent t1/2 following the first dose, range over etamicastat 25–600 mg, plasma): 9 to 15 h | mean observed accumulation ratio (RO) ([2]; range over etamicastat 25–600 mg once daily for 10 days): 1.3–1.9 | time after dosing at which maximum concentration (Cmax) was reached ([2]; range over etamicastat 25–600 mg once daily, plasma): 1 to 3 h | day at which steady state was reached (trough plasma concentrations) ([2]; remaining dose groups): < 6 days | effect of food on absorption [3]: delayed by the presence of food | effect of food on extent of systemic exposure (AUC) [3]: no significant effect | time of maximum plasma concentrations (Cmax) after dosing ([4]; single dose 2–1200 mg): 1 to 3 h | tolerability ([4]; single doses 2–1200 mg): well tolerated at all the investigated dose levels | longer elimination half-life (t1/2) ([4]; single etamicastat doses ≥100 mg): 16 to 20 h | urinary excretion rate ([5]; first dose, etamicastat 25 mg): 0.3 ± 0.1 mg/h | urinary excretion rate ([5]; first dose, etamicastat 600 mg): 8.5 ± 3.2 mg/h | urinary excretion rate ([5]; last dose, etamicastat 25 mg): 0.4 ± 0.2 mg/h | urinary excretion rate ([5]; last dose, etamicastat 600 mg): 10.6 ± 2.8 mg/h | CL renal ([5]; male, human, urine and plasma, po): 198 to 267 mL/min | subjects reporting diarrhea as an AE ([6]; 600 mg etamicastat group): 83% | clinical laboratory evaluations [6, 10]: no clinically significant abnormality | intensity of adverse events [6, 10]: mild to moderate | serious adverse events [6, 10]: no serious AEs | tolerability ([6]; etamicastat up to 600 mg once daily for 10 days): generally well tolerated | decrease of supine DBP Emax in relation to day 1 ([7]; etamicastat 100 mg, p < 0.01): 5.6 mmHg | decrease of supine DBP AUCEC in relation to day 1 ([7]; etamicastat 100 mg, p < 0.05): 223 mmHg · h | decrease of supine DBP AUCEC in relation to day 1 ([7]; etamicastat 200 mg, p < 0.05): 193 mmHg · h | decrease of supine DBP Emax in relation to day 1 ([7]; etamicastat 200 mg, p < 0.05): 5.9 mmHg | change in SBP and HR ([7]; following repeated dosing, any dose level): did not significantly change | changes in SBP, DBP or HR ([7]; following the first dose, etamicastat 25–600 mg): no significant changes | change in urinary excretion of homovanillic acid, epinephrine and dopamine ([8]; day 1 to day 10, all dose groups): No relevant changes | decrease in norepinephrine urinary excretion ([8]; doses of etamicastat 100 mg and above, day 10 vs day 1): 32–36% | decrease of urinary excretion of norepinephrine at day 10 in relation to day 1 ([8]; etamicastat 25 mg once daily): 24% | decrease of urinary excretion of norepinephrine at day 10 in relation to day 1 ([8]; etamicastat 50 mg once daily): 18% | decrease of urinary excretion of norepinephrine at day 10 in relation to day 1 ([8]; etamicastat 100 mg once daily): 36% | decrease of urinary excretion of norepinephrine at day 10 in relation to day 1 ([8]; etamicastat 200 mg once daily): 34% | decrease of urinary excretion of norepinephrine at day 10 in relation to day 1 ([8]; etamicastat 400 mg once daily): 32% | decrease of urinary excretion of norepinephrine at day 10 in relation to day 1 ([8]; etamicastat 600 mg once daily): 34%

NCc1c[nH]c(=S)n1[C@H]1CCc2c(F)cc(F)cc2C1 [Nepicastat]
potency as DβH inhibitor versus first- and second-generation inhibitors [9]: much greater potency
